In US8206983B2, “In vitro methods for the induction and maintenance of plant cell lines as single suspension cells with intact cell walls” (Dow AgroSciences, LLC., priority 2006, dated 2012):

Legend:
[1] = tested on: JTNT1 single cells; assay: Cytological characterization of JTNT1 single cells (nucleus, cell wall); format: cell-based, tobacco
Description: (§1) JTNT1 Tobacco single cell initiation and sample collection. JTNT1 Tobacco single cells were initiated in two different media, NT1B with 3% sucrose (NT1B-Suc) and NT1B with 3% glycerol (NT1B-Gly) in 3.5 day culture cycle. […] The flasks were closed with a foam stopper and cultured on a orbital shaker at 130 rpm in dark at 25-28° C. The cultures were sub cultured every 3.5 days up to a period of 14 days. Four samples (Suc/Gly grown cells and the control cultures in Suc/Gly media with 0.2% DMSO) of the cultures were harvested every 3.5 days by spinning the suspension at 3000 rpm for 5 minutes. The samples were immediately lyophilized to prevent any cell oxidation to minimize any deleterious effect on the samples introduced post harvest. Single cells were stained with Hoechst nuclear stain for an hour and observed under scopes for any nuclear anomaly up to two culture cycles.
Cell viability and Cell wall. Established JTNT1 single cells were used to stain with FUN1 (F-7030, Molecular Probes, Invitrogen Inc) cell stain which is used for viability test in yeast, and this contains two color fluorescent probes. The third one, Calcofluor White M2R which stains cell wall, was used to stain the cells. For JTNT1 single cells, […] of FUN1 stain is added and the culture was incubated at room temperature for 20 mins 1 mL fresh culture media was added to wash the excess stain and centrifuged at 3000 rpm; the supernantant was discarded. The cells were examined and imaged on Zeiss ApoTome microscope.
Nucleus. Single cells were stained with Hoechst nuclear stain for an hour and observed on Zeiss Apo Tome for any nuclear anomaly up to two culture cycles. Crystal violet stain was also used as a live nuclear stain for observing nuclear structure for ploidy characterization

[2] = tested on: JTNT1 single cells; assay: AFLP analysis of genomic instability in JTNT1 single cells produced in 1 uM diphenylpyrazole; format: cell-based, tobacco
Description: as §1
DNA extraction. Genomic DNA from representative samples were harvested from 3.5, 7, 10.5, and 14 days. Suc and Gly cultures along with the controls (10 samples) were extracted using CTAB protocol (See Appendix-Example 12). DNA was quantified using PicoGreen® dye from Molecular Probes, Inc. (Eugene, Oreg.). Each well of a microtiter plate contained 90 μl of 200-fold picogreen combined with 10 μl of DNA sample at 40× dilution or Lambda DNA standards (0, 2.5, 5 and 10 ng/μl). Plates were shaken briefly using standard plate shaker, and fluorescence was read (excitation ˜480 nm, emission ˜520 nm) using Spectra Max GeminiXS fluorometer from Molecular Devices (Sunnyvale, Calif.). Each sample was quantified in triplicate, and an average of the three results was used for subsequent dilutions. The DNA sample concentrations were diluted to working concentration of 91 ng/μl with sterile water.
AFLP analysis. Amplified fragment length polymorphism (AFLP) assays were performed using a modification of the protocol of Vos et. al. (1995), as described in Bryan et. al. (2002). The 6-bp cutting restriction enzyme EcoRI was used in combination with the 4-bp cutting restriction enzyme MseI. EcoR1 fluorescently labeled and Mse1 non-labeled AFLP primers were ordered from Applied Biosystems (Foster City, Calif.). AFLP analysis was carried out using Applied Biosystems' AFLP Plant Mapping Protocol through the selective amplification reaction with one modification. The modification was that digestion/ligation reactions were incubated at 37° C. overnight. Selectively amplified products were diluted 2 fold in sterilized deionized water. 0.5 ul of the diluted product was combined with 5 ul of loading buffer (5 ul GeneScan 500 by LIZ size standard mixed with 500 ul ABI HiDi Formamide). Samples were analyzed on an AB3730XL DNA Analyzer with G5-RCT spectral matrix using standard conditions. Data was then imported into GeneMapper® version 4.0 (Applied Biosystems, 2005). Alleles were assigned a numeric value according to PCR fragment size.

CCOC(=O)COc1nn(-c2ccccc2)c(-c2ccccc2)c1Cl [DAS-PMTI-1]
at least 4 subculture cycles: subculture cycles without genomic instability problem ([2]; concentration range tested)
0: Number of polymorphic bands ([2]; primer 1p AC/CAG, 3.5 d, Gly, 1 uM) | Number of polymorphic bands ([2]; primer 1p AC/CAG, 3.5 d, Suc, 1 uM) | Number of polymorphic bands ([2]; primer 1p AC/CAG, 7 d, Gly, 1 uM) | Number of polymorphic bands ([2]; primer 1p AC/CAG, 7 d, Suc, 1 uM) | Number of polymorphic bands ([2]; primer 1p AC/CAG, 10.5 d, Gly, 1 uM) | Number of polymorphic bands ([2]; primer 1p AC/CAG, 10.5 d, Suc, 1 uM) | Number of polymorphic bands ([2]; primer 1p AC/CAG, 14 d, Suc, 1 uM) | Number of polymorphic bands ([2]; primer 2p AGC/CAG, 3.5 d, Gly, 1 uM) | Number of polymorphic bands ([2]; primer 2p AGC/CAG, 3.5 d, Suc, 1 uM) | Number of polymorphic bands ([2]; primer 2p AGC/CAG, 7 d, Gly, 1 uM) | Number of polymorphic bands ([2]; primer 2p AGC/CAG, 7 d, Suc, 1 uM) | Number of polymorphic bands ([2]; primer 2p AGC/CAG, 10.5 d, Gly, 1 uM) | Number of polymorphic bands ([2]; primer 2p AGC/CAG, 10.5 d, Suc, 1 uM) | Number of polymorphic bands ([2]; primer 2p AGC/CAG, 14 d, Suc, 1 uM) | Number of polymorphic bands ([2]; primer 3p AGC/CTG, 3.5 d, Gly, 1 uM) | Number of polymorphic bands ([2]; primer 3p AGC/CTG, 3.5 d, Suc, 1 uM) | Number of polymorphic bands ([2]; primer 3p AGC/CTG, 7 d, Gly, 1 uM) | Number of polymorphic bands ([2]; primer 3p AGC/CTG, 7 d, Suc, 1 uM) | Number of polymorphic bands ([2]; primer 3p AGC/CTG, 10.5 d, Gly, 1 uM) | Number of polymorphic bands ([2]; primer 3p AGC/CTG, 10.5 d, Suc, 1 uM) | Number of polymorphic bands ([2]; primer 3p AGC/CTG, 14 d, Gly, 1 uM) | Number of polymorphic bands ([2]; primer 3p AGC/CTG, 14 d, Suc, 1 uM) | Number of polymorphic bands ([2]; primer 4p ACT/CTT, 3.5 d, Gly, 1 uM) | Number of polymorphic bands ([2]; primer 4p ACT/CTT, 3.5 d, Suc, 1 uM) | Number of polymorphic bands ([2]; primer 4p ACT/CTT, 7 d, Gly, 1 uM) | Number of polymorphic bands ([2]; primer 4p ACT/CTT, 7 d, Suc, 1 uM) | Number of polymorphic bands ([2]; primer 4p ACT/CTT, 10.5 d, Gly, 1 uM) | Number of polymorphic bands ([2]; primer 4p ACT/CTT, 10.5 d, Suc, 1 uM) | Number of polymorphic bands ([2]; primer 4p ACT/CTT, 14 d, Suc, 1 uM) | Number of polymorphic bands ([2]; primer 5p ACT/CAG, 3.5 d, Gly, 1 uM) | Number of polymorphic bands ([2]; primer 5p ACT/CAG, 3.5 d, Suc, 1 uM) | Number of polymorphic bands ([2]; primer 5p ACT/CAG, 7 d, Gly, 1 uM) | Number of polymorphic bands ([2]; primer 5p ACT/CAG, 7 d, Suc, 1 uM) | Number of polymorphic bands ([2]; primer 5p ACT/CAG, 10.5 d, Gly, 1 uM) | Number of polymorphic bands ([2]; primer 5p ACT/CAG, 10.5 d, Suc, 1 uM) | Number of polymorphic bands ([2]; primer 5p ACT/CAG, 14 d, Suc, 1 uM) | Number of polymorphic bands ([2]; primer 7p ACC/CAG, 3.5 d, Gly, 1 uM) | Number of polymorphic bands ([2]; primer 7p ACC/CAG, 3.5 d, Suc, 1 uM) | Number of polymorphic bands ([2]; primer 7p ACC/CAG, 7 d, Gly, 1 uM) | Number of polymorphic bands ([2]; primer 7p ACC/CAG, 7 d, Suc, 1 uM) | Number of polymorphic bands ([2]; primer 7p ACC/CAG, 10.5 d, Gly, 1 uM) | Number of polymorphic bands ([2]; primer 7p ACC/CAG, 10.5 d, Suc, 1 uM) | Number of polymorphic bands ([2]; primer 7p ACC/CAG, 14 d, Suc, 1 uM) | Number of polymorphic bands ([2]; primer 8p ACC/CTG, 3.5 d, Gly, 1 uM) | Number of polymorphic bands ([2]; primer 8p ACC/CTG, 3.5 d, Suc, 1 uM) | Number of polymorphic bands ([2]; primer 8p ACC/CTG, 7 d, Gly, 1 uM) | Number of polymorphic bands ([2]; primer 8p ACC/CTG, 7 d, Suc, 1 uM) | Number of polymorphic bands ([2]; primer 8p ACC/CTG, 10.5 d, Gly, 1 uM) | Number of polymorphic bands ([2]; primer 8p ACC/CTG, 10.5 d, Suc, 1 uM) | Number of polymorphic bands ([2]; primer 8p ACC/CTG, 14 d, Gly, 1 uM) | Number of polymorphic bands ([2]; primer 8p ACC/CTG, 14 d, Suc, 1 uM) | Number of polymorphic bands ([2]; primer 9p ACA/CAG, 3.5 d, Gly, 1 uM) | Number of polymorphic bands ([2]; primer 9p ACA/CAG, 3.5 d, Suc, 1 uM) | Number of polymorphic bands ([2]; primer 9p ACA/CAG, 7 d, Gly, 1 uM) | Number of polymorphic bands ([2]; primer 9p ACA/CAG, 7 d, Suc, 1 uM) | Number of polymorphic bands ([2]; primer 9p ACA/CAG, 10.5 d, Gly, 1 uM) | Number of polymorphic bands ([2]; primer 9p ACA/CAG, 10.5 d, Suc, 1 uM) | Number of polymorphic bands ([2]; primer 9p ACA/CAG, 14 d, Suc, 1 uM)
3: Number of polymorphic bands ([2]; primer 5p ACT/CAG, 14 d, Gly, 1 uM)
low or no nuclear ploidy percentage: nuclear ploidy ([1]; 14 days of continuous treatments)
34: Number of polymorphic bands, Total ([2]; all primer combinations, 14 d, Gly, 1 uM)
5: Number of polymorphic bands ([2]; primer 1p AC/CAG, 14 d, Gly, 1 uM) | Number of polymorphic bands ([2]; primer 4p ACT/CTT, 14 d, Gly, 1 uM)
7: Number of polymorphic bands ([2]; primer 9p ACA/CAG, 14 d, Gly, 1 uM)
single nucleus: nuclear organization of single cells ([1]; 1 uM, 3.5 d cultures)
4: Number of polymorphic bands ([2]; primer 7p ACC/CAG, 14 d, Gly, 1 uM)
10: Number of polymorphic bands ([2]; primer 2p AGC/CAG, 14 d, Gly, 1 uM)
